The values below are quoted from earlier work in patent US20090155358A1, “PHARMACEUTICAL COMPOSITIONS OF SHORT-ACTING HYPNOTIC AGENTS IN MODIFIED-RELEASE FORMS AND THE […] PREPARE THE MENTIONED FORMULATION” (Gador S.A., priority 2005, published 2009).

SMILES strings stand for the structures. Structures can show the parent of a compound that is named as a salt.

For one data set, the target named is T1, BZ1 receptor (Homo sapiens, UniProt P14867+P18507).
T1 sequence (P14867 28-456): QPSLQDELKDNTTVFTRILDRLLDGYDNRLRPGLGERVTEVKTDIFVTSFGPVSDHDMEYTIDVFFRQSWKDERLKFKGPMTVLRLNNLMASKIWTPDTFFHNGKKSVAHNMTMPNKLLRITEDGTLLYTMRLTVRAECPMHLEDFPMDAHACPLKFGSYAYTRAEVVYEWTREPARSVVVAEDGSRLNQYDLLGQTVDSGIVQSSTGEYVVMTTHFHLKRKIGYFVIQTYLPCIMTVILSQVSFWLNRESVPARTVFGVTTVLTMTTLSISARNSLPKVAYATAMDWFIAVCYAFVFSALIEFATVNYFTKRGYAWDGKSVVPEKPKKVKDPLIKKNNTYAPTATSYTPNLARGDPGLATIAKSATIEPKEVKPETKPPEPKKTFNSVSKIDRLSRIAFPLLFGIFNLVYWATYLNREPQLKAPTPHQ
T1 sequence (P18507 40-467 limits assumed): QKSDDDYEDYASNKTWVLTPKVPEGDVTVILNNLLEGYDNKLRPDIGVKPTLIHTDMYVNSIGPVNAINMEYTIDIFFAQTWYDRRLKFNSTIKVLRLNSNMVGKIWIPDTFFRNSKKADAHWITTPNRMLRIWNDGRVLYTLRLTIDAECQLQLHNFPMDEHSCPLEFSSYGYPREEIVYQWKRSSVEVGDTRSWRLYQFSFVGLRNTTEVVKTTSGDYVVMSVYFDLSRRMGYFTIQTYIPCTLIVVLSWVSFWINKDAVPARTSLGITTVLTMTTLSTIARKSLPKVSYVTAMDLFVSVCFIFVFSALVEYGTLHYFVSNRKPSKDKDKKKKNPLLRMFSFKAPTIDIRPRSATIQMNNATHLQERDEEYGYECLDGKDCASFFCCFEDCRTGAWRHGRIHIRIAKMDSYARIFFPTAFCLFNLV
T1 sequence (P47870 25-512 partner limits assumed): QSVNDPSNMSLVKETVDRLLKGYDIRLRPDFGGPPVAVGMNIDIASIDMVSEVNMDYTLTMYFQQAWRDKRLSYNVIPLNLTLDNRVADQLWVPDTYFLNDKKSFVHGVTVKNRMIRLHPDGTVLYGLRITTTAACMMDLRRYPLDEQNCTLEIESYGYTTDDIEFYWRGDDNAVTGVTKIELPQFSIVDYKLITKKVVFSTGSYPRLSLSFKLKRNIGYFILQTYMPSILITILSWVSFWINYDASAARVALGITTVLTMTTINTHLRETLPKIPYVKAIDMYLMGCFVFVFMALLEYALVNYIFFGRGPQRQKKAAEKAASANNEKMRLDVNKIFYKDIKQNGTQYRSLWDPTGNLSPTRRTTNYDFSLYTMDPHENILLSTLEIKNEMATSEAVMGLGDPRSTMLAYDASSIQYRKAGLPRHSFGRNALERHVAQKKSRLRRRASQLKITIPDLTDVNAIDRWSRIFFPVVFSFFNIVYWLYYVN
Particulars: in vitro.

For `Cc1ccc(-c2nc3ccc(C)cn3c2CC(=O)N(C)C)cc1` [Zolpidem tartrate, N,N,6-trimethyl-2-p-toyl-imidazo[1,2-a]pyridine-3-acetamide], for the setting “alcohol”, the solubility in alcohol entry is reported as “sparingly soluble”. The “solubility in propylene glycol” value (propylene glycol) was “sparingly soluble”. The solubility in water entry (water) was “sparingly soluble”.

In the case of `Cc1ccc(-c2nc3ccc(C)cn3c2CC(=O)N(C)C)cc1` [Zolpidem, N,N,6-trimethyl-2-p-toyl-imidazo[1,2-a]pyridine-3-acetamide], the “affinity for BZ1 receptor, subunits α1/α5” value on BZ1 receptor was “large affinity”.
